Measured values published in patent publication US20110045101A1, “FUNGICIDAL SUBSTITUTED AZOLES” (E.I. Du Pont De Nemours and Company, priority 2009, published 2011).
Marks after values point to notes of the source that are not given here.

What was measured:
Assay type in all cases: in vivo
Conditions in all cases: 100 = 100% disease control
[1] = tested on: Puccinia recondita f. sp. tritici; experiment: Test I: wheat leaf rust on wheat seedlings, sprayed the day before inoculation, visual disease rating
Procedure, shortened: (§1)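 Compounds were dissolved in acetone (3% of final volume), then suspended in 50/50 acetone/purified water with 250 ppm Trem® 014 surfactant. Suspensions at 200 ppm (some at 40 ppm) were sprayed to run-off, 200 ppm being equivalent to 500 g/ha.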

[2] = tested on: Puccinia recondita f. sp. tritici; experiment: Test H: wheat leaf rust, test suspension sprayed after inoculation of wheat seedlings, visual disease rating
Procedure, shortened: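 Wheat seedlings inoculated with P. recondita spores, held 24 h saturated at 20 °C, then 2 days in growth chamber at 20 °C; compound suspension (acetone/water with Trem 014) sprayed to run-off afterwards. Rated visually; 200 ppm (≈500 g/ha) unless marked *, which denotes 40 ppm.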

Septoria nodorum = experiment: Test F: wheat glume blotch on wheat seedlings, sprayed the day before inoculation, visual disease rating
Procedure, shortened: as §1

Septoria tritici = experiment: Test G: wheat leaf blotch on wheat seedlings, sprayed the day before inoculation, visual disease rating
Procedure, shortened: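 Compounds dissolved in acetone (3% of final volume), then suspended in 50/50 acetone/water with 250 ppm Trem® 014 and sprayed to run-off on seedlings at 200 ppm (≈500 g/ha) or 40 ppm where marked. Inoculation with spores followed next day; visual rating after 48 h saturated at 24° C plus 19 days at 20° C.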

Alternaria solani = experiment: Test D: tomato early blight, sprayed the day before inoculation, visual disease rating
Procedure, shortened: as §1

Botrytis cinerea = experiment: Test C: tomato Botrytis on tomato seedlings, sprayed the day before inoculation, visual disease rating
Procedure, shortened: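 Compounds were dissolved in acetone (3% of final volume), then suspended in 50/50 acetone/purified water containing 250 ppm polyhydric alcohol ester surfactant. Suspensions were sprayed to run-off on tomato seedlings at 200 ppm, equivalent to 500 g/ha, or at 40 ppm where marked.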

[3] = tested on: Erysiphe graminis f. sp. tritici; experiment: Test J: wheat powdery mildew on wheat seedlings, sprayed the day before inoculation, visual disease rating
Procedure, shortened: as §1

[4] = 200 ppm, 0 = no control relative to controls

Molecule	Test I disease control rating [1, 4] [%]	Test H disease control rating [2, 4] [%]	Test F disease control rating (Septoria nodorum; [4]) [%]	Test G disease control rating (Septoria tritici; [4]) [%]	Test D disease control rating (Alternaria solani; [4]) [%]	Test C disease control rating (Botrytis cinerea; [4]) [%]	Test J disease control rating [3, 4] [%]	further results
COc1cc(F)c(-c2c(Cl)nc(Cl)n2-c2ccc(Cl)nc2OC)c(F)c1 [compound 514]	93	0	73	100	99	99	99	
Cc1nc(Br)c(Cc2c(F)cc(F)cc2F)n1-c1c(Cl)cccc1Cl [compound 538]	100	27	0	99	0	99	100	
Fc1cccc(-n2cnc(Cl)c2-c2c(F)ccc(F)c2F)c1 [compound 364]	98	0	0	58	100	100	83	
Cc1ncn(-c2ccc(Cl)c(F)c2)c1-c1cncc(Br)c1 [compound 346]	9	9	0	38	0	99	0	
CN(C)c1ccc(-n2c(Br)nc(N(C)C)c2-c2c(F)cccc2F)cc1Br [compound 689]	0	0	0	0	0	0	0	
Cc1nc(Cl)n(-c2ccc(Cl)c(F)c2)c1-c1ccc(Br)cn1 [compound 358]	41	0	0	90	0	99	0	
Fc1cc(F)c(-c2c(Cl)nc(Br)n2-c2ccc(OC(F)(F)F)cc2)c(F)c1 [compound 606]	28	0	0	99	100	99	100	
COc1ccc(F)c(-c2c(Cl)ncn2-c2ccc(C)c(F)c2)c1F [compound 520]	99	0	0	97	100	100	100	
Fc1cc(F)c(-c2c(Cl)ncn2-c2ccc(OC(F)F)cc2)c(F)c1 [compound 585]	100	0	0	100	99	100	99	
Cc1nc(Cl)n(-c2ccc(Cl)c(F)c2)c1-c1scnc1Cl [compound 380]	99	0	0	91	91	100	99	
COc1ccc(F)c(-c2c(Cl)nc(Br)n2-c2cccc(OC(F)F)c2)c1F [compound 402]	94	0	99	96	100	100	99	
COc1cc(F)c(-n2c(Cl)nc(C)c2-c2ccc(C)cc2)c(F)c1 [compound 564]								Test I disease control rating ([1]; 40 ppm (marked *)): 100* %; Test H disease control rating ([2]; 40 ppm (marked *)): 66* %; Test F disease control rating (Septoria nodorum; 40 ppm (marked *)): 64* %; Test G disease control rating (Septoria tritici; 40 ppm (marked *)): 99* %; Test D disease control rating (Alternaria solani; 40 ppm (marked *)): 100* %; Test C disease control rating (Botrytis cinerea; 40 ppm (marked *)): 99* %; Test J disease control rating ([3]; 40 ppm (marked *)): 100* %
Cc1nc(Br)c(-c2ccc(Cl)cc2)n1-c1ccc(F)cc1Cl [compound 338]	99	0	80	93	100	100	99	
COc1ccc(F)c(-c2c(Br)ncn2-c2ccc(C)cc2)c1F [compound 473]	100	0	0	97	100	99	100	
COc1cc(F)c(-c2c(Cl)ncn2-c2cccc(Cl)c2)c(F)c1 [compound 497]	100	0	100	97	99	97	100	
5-[4-chloro-5-(2,6-difluoro-4-methoxyphenyl)-1H-imidazol-1-yl]-2-(trifluoromethyl)pyridine [Example 34]								Test I disease control rating ([1]; 40 ppm (marked *)): 100* %; Test H disease control rating ([2]; 40 ppm (marked *)): 91* %; Test F disease control rating (Septoria nodorum; 40 ppm (marked *)): 99* %; Test G disease control rating (Septoria tritici; 40 ppm (marked *)): 90* %; Test D disease control rating (Alternaria solani; 40 ppm (marked *)): 100* %; Test C disease control rating (Botrytis cinerea; 40 ppm (marked *)): 99* %; Test J disease control rating ([3]; 40 ppm (marked *)): 100* %
CNC(=O)Cc1nc(Br)c(-c2c(F)cccc2F)n1-c1ccc(Cl)cc1 [Compound 571, 4-bromo-1-(4-chlorophenyl)-5-(2,6-difluorophenyl)-N-methyl-1H-imidazole-2-acetamide]								pest or weed control at 200 ppm ([1]; Puccinia recondita, 168 h, 200 ppm, 0 = no control relative to controls): 90%; pest or weed control at 200 ppm ([2]; Puccinia recondita, 96 h, 200 ppm, 0 = no control relative to controls): 0%; pest or weed control at 200 ppm (Septoria nodorum; Parastagonospora nodorum, 264 h, 200 ppm, 0 = no control relative to controls): 0%; pest or weed control at 200 ppm (Septoria tritici; Zymoseptoria tritici, 504 h, 200 ppm, 0 = no control relative to controls): 82%; pest or weed control at 200 ppm (Alternaria solani; Alternaria solani, 168 h, 200 ppm, 0 = no control relative to controls): 0%; pest or weed control at 200 ppm (Botrytis cinerea; Botrytis cinerea, 120 h, 200 ppm, 0 = no control relative to controls): 33%; pest or weed control at 200 ppm ([3]; Blumeria graminis, 168 h, 200 ppm, 0 = no control relative to controls): 0%
COc1cc(F)c(-c2c(Cl)nc(Cl)n2-c2cccnc2OC)c(F)c1 [compound 676]	100	99	99	99	99	100	98	
Cc1nc(Br)c(-c2ccc(Cl)c(F)c2)n1-c1ccc(F)cc1Cl [compound 340]	94	0	0	92	98	99	95	
COc1cc(F)c(-c2c(Cl)nc(Cl)n2-c2ccc(C)nc2)c(F)c1 [compound 553]	100	100	100	99	100	100	100	
